“And” between values parts separate entries of the source, which are not always exact repeats. Equal entries are not always repeated.
What follows are molecules tested against T1, Adenosine receptor A1 (Gallus gallus, UniProt P49892).
T1 sequence (P49892 whole entry): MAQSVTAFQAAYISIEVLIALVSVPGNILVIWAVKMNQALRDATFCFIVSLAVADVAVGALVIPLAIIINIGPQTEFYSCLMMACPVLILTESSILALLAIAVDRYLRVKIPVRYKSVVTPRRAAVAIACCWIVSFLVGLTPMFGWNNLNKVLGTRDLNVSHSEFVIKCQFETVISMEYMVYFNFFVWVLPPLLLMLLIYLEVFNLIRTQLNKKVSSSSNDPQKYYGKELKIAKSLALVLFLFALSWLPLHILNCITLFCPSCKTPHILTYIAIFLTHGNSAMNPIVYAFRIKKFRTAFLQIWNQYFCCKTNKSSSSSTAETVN
Work on `OC[C@H]1O[C@@H](n2cnc3c(NC4CCCCC4)ncnc32)[C@H](O)[C@@H]1O` [CHA] yielded a Ki of 2.5 nM. With `CCn1c(=O)c2[nH]c(-c3ccccc3)nc2n(CC)c1=O` [1,3-Diethyl-8-phenyl-3,7-dihydro-purine-2,6-dione] the Ki was 2070 nM and 790 nM. In the case of `CCNC(=O)[C@H]1O[C@@H](n2cnc3c(N)ncnc32)[C@H](O)[C@@H]1O`, the Ki is reported as 14.4 nM and 16.9 nM.

Source: BindingDB's records for PubMed 3252029 (University of Illinois At Chicago, 1988)
